Drawing on article PMC10147607, “MSI2 promotes translation of multiple IRES-containing oncogenes and virus to induce self-renewal of tumor initiating stem-like cells” (Cell Death Discovery, 2023), this text covers Kd for two molecules.

The structures appear in SMILES notation.

As usually defined, the Kd is the equilibrium constant for the complex coming apart.

Assay [1] addresses T1, MSI2 (full-length, wild type; recombinant MSI2) (Homo sapiens, UniProt Q96DH6).
T1 construct: full-length recombinant MSI2, purified; His6-tagged in EMSA (MSI2-His6)
Description: ligand binding curve, probably MST (method for gossypol not stated explicitly).

The target in assay [2] is T1, MSI2 (full-length, wild type; recombinant MSI2). Description: microscale thermophoresis (MST). The class given is binding.

T1 sequence (Q96DH6 whole entry): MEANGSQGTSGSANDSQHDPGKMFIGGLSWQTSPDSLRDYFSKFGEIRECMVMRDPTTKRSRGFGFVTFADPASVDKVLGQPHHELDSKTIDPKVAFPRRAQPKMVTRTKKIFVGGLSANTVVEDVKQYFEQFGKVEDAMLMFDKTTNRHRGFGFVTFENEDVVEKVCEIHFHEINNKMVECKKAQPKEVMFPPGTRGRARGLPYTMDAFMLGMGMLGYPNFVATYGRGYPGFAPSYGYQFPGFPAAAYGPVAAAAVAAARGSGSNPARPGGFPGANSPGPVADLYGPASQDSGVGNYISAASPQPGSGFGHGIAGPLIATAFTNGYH

For the molecule `Cc1cc2c(C(C)C)c(O)c(O)c(C=O)c2c(O)c1-c1c(C)cc2c(C(C)C)c(O)c(O)c(C=O)c2c1O` [Gossypol], in assay [1], the Kd is 35 µM.
In the case of `CC(C)(Sc1ccc(CCN(CCCCC2CCCCC2)C(=O)NC2CCCCC2)cc1)C(=O)O` [GW7647], the Kd in assay [2] turned out to be 1200 nM.
